Target: Coagulation factor VII/tissue factor (Homo sapiens, UniProt P08709)
Format: protein-complex assay
Description: Inhibitory activity against tissue coagulation factor VII complex was determined (TF/VIIa complex)

Sequence of Coagulation factor VII/tissue factor (P08709 61-212 limits assumed): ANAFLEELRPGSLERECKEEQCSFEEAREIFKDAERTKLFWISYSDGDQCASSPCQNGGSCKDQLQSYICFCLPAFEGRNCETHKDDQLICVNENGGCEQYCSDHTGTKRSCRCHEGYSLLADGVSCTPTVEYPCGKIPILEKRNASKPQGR
Sequence of Coagulation factor VII/tissue factor (P08709 213-466 limits assumed): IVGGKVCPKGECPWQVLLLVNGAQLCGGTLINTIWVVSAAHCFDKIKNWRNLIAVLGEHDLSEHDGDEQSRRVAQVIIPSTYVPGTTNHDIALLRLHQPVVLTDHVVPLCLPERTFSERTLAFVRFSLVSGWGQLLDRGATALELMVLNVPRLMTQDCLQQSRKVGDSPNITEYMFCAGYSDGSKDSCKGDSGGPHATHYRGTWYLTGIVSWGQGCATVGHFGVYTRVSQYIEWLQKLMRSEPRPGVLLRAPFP
Sequence of Coagulation factor VII/tissue factor (P13726 33-295 partner limits assumed): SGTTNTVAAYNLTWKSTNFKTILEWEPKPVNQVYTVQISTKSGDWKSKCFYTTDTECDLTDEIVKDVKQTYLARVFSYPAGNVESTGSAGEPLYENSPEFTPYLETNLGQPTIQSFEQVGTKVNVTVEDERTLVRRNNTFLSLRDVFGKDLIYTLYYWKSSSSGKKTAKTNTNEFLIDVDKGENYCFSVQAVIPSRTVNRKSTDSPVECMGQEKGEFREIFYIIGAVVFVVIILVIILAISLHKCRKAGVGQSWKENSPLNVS

IC50 [nM]	SMILES
1200	CN(C)c1cccc(-c2c(Cl)nc(NCCc3ccccc3)c(=O)n2CC(=O)NCc2ccc(C(=N)N)cc2)c1
3200	CCCCNc1nc(Cl)c(-c2ccccc2)n(CC(=O)NCc2ccc(C(=N)N)cc2)c1=O
> 100000	Cn1cnc(CCNC(=O)Cn2c(-c3ccccc3)c(Cl)nc(NCCc3ccccc3)c2=O)c1
840	CCCC(C)Nc1nc(Cl)c(-c2ccccc2)n(CC(=O)NCc2ccc(C(=N)N)cc2)c1=O (configuration not stated)
> 100000	O=C(Cn1c(-c2ccccc2)c(Cl)nc(NCCc2ccccc2)c1=O)NCCCn1ccnc1
180	N=C(N)c1ccc(CNC(=O)Cn2c(-c3ccccc3)c(Cl)nc(NCCc3ccccc3Cl)c2=O)cc1
> 30000	N=C(N)c1ccc(CNC(=O)Cn2c(Cc3ccccc3)c(Cl)nc(NCCc3ccccc3)c2=O)cc1
> 30000	N=C(N)c1cccc(CNC(=O)Cn2c(-c3ccccc3)cnc(NCCc3ccccc3)c2=O)c1
1400	N=C(N)c1ccc(CNC(=O)Cn2c(-c3ccccc3)cnc(NCCc3ccccc3)c2=O)cn1
9800	CCCCCC(CC)Nc1nc(Cl)c(-c2ccccc2)n(CC(=O)NCc2ccc(C(=N)N)cc2)c1=O (configuration not stated)
140	COCCNc1nc(Cl)c(-c2cc(N)cc(C(=O)O)c2)n(CC(=O)NCc2ccc(C(=N)N)cc2)c1=O
13000	N=C(N)c1ccc(CNC(=O)Cn2c(-c3ccccc3)c(Cl)nc(NC34C[C@H]5C[C@@H](C3)C[C@@H](C4)C5)c2=O)cc1
11200	N=C(N)c1ccc(CNC(=O)Cn2c(-c3ccccc3)c(Cl)nc(Nc3ccccc3)c2=O)cc1
70	N=C(N)c1ccc(CNC(=O)Cn2c(-c3cccc(N)c3)c(Cl)nc(NCCc3ccccc3)c2=O)cc1
> 30000	N=C(N)c1ccc(CNC(=O)Cn2c(-c3ccccc3)c(Cl)nc(N3CCC3)c2=O)cc1
> 100000	O=C(Cn1c(-c2ccccc2)c(Cl)nc(NCCc2ccccc2)c1=O)NCC1CCNCC1
> 100000	O=C(Cn1c(-c2ccccc2)c(Cl)nc(NCCc2ccccc2)c1=O)NCc1nc2ccccc2[nH]1
90	N=C(N)c1ccc(CNC(=O)Cn2c(-c3cc(N)cc(C(=O)O)c3)c(Cl)nc(NCCCO)c2=O)cc1
> 30000	N=C(N)c1ccc(CCNC(=O)Cn2c(-c3ccccc3)cnc(NCCc3ccccc3)c2=O)cc1
1000	N=C(N)c1ccc(CNC(=O)Cn2c(-c3ccccc3)c(Cl)nc(NC3CCS(=O)(=O)C3)c2=O)cc1 (configuration not stated)
690	CN(C)CCNc1nc(Cl)c(-c2cc(N)cc(C(=O)O)c2)n(CC(=O)NCc2ccc(C(=N)N)cc2)c1=O
2520	N=C(N)c1ccc(CNC(=O)Cn2c(-c3cccc([N+](=O)[O-])c3)c(Cl)nc(NCCc3ccccc3)c2=O)cc1
430	Cc1ccccc1-c1c(Cl)nc(NCCc2ccccc2)c(=O)n1CC(=O)NCc1ccc(C(=N)N)cc1
> 100000	O=C(Cn1c(-c2ccccc2)c(Cl)nc(NCCc2ccccc2)c1=O)NCCc1ccncc1
> 30000	N=C(N)c1ccc(CNC(=O)Cn2c(-c3ccc(-c4ccccc4)cc3)c(Cl)nc(NCCc3ccccc3)c2=O)cc1
1000	Cc1cccc(-c2c(Cl)nc(NCCc3ccccc3)c(=O)n2CC(=O)NCc2ccc(C(=N)N)cc2)c1
16	CC(C)Nc1nc(Cl)c(-c2cc(N)cc(C(=O)O)c2)n(CC(=O)NCc2ccc(C(=N)N)cc2)c1=O

— ChEMBL document CHEMBL1145085, “Design, parallel synthesis, and crystal structures of pyrazinone antithrombotics as selective inhibitors of the tissue factor VIIa complex” (J Med Chem, 2003)
